# Source: patent US8058243B2, “Method for treating a brain cancer with ifenprodil” (HSC Research and Development Limited Partnership, priority 2006, dated 2011)
# Counter-ions that a name gives are not always drawn. Like-named read-outs stand apart in the source and are kept apart here.
# Test system: murine neural precursor cells (neurosphere cultures)
# Assay: HTS of LOPAC library against secondary neurosphere cultures, MTT proliferation assay at 3 μM, day 7 (z score, P value)
# Type: cell-based, mouse
# [1] = LOPAC library screen, 3 μM, MTT, neurosphere cultures
# [2] = LOPAC primary screen, neurosphere MTT proliferation, 3 μM, day 7
# [3] = yes/no: significantly inhibited neurosphere proliferation (P<0.01) in primary screen
# [4] = yes = significantly inhibited neurosphere proliferation (P<0.01) in the primary screen
# [5] = primary LOPAC screen, 3 μM, MTT, neurosphere proliferation
# [6] = yes/no: significantly inhibited neurosphere proliferation in the primary screen
# [7] = yes/no: significantly inhibited neurosphere proliferation in primary screen
# [8] = LOPAC library screen at 3 μM, secondary neurosphere cultures, MTT
# [9] = LOPAC library screen, 3 μM, MTT, secondary neurosphere cultures, day 7
# [10] = LOPAC screen, neurosphere MTT proliferation, 3 μM, day 7
# [11] = yes/no: significantly inhibited neurosphere proliferation (P<0.01) in the primary screen
# [12] = LOPAC library screen at 3 μM, MTT, secondary neurosphere cultures, screened in singlets
compound,measurement,setting,value
COc1cccc2c1[C@@H]1CN(CCCCn3c(=O)[nH]c4c(sc5ncc(-c6ccccc6)nc54)c3=O)C[C@@H]1CO2 [Fiduxosin hydrochloride],Z Score,[1],0.2005
same,Z score,[2],0.200
same,Activity,[3],no
C[C@@H]1O[C@H](C[N+](C)(C)C)C[C@H]1O.[Cl-] (racemic) [(±)-Muscarine chloride],Z score,[2],−1.905
same,Activity,[4],no
Cl.OC(CCN1CCCCC1)(c1ccccc1)C1CCCCC1 (stereo not drawn) [Trihexylphenidyl hydrochloride],Z score,[5],1.215
same,Activity,[6],no
N[C@H](C(=O)O)c1cc(O)no1 [(B1)-Ibotenic acid],Z Score,,−1.65
Cl.NCCCCC(=O)O [5-Aminovaleric acid hydrochloride],Z Score,"168 h, 3 µM",−1.67
same,Z score,"168 h, 3 µM",−1.670
same,Activity,[7],no
[N-]=[N+]=Nc1ccc(C(=O)CSC[C@H](NC(=O)CC[C@H](N)C(=O)O)C(=O)NCC(=O)O)cc1 [S-(p-Azidophenacyl)glutathione],Z Score,[1],−0.00276
same,Z score,[5],−0.003
same,Activity,[6],no
CC(C)NCC(O)c1ccc(O)c(O)c1.Cl (stereo not drawn) [(B1)-Isoproterenol hydrochloride],Z Score,,−0.5717
C=C(C)[C@H]1CN[C@H](C(=O)O)[C@H]1CC(=O)O [Kainic acid],Z Score,,−0.3169
same,Z score,[2],−0.317
same,Activity,[3],no
Cc1ccc(/C(=C\CN2CCCC2)c2ccccn2)cc1 [Triprolidine hydrochloride],Z Score,[8],−0.4061
same,Z score,[2],−0.406
same,Activity,[7],no
O=C(O)C1CCCNC1 (racemic) [(±)-Nipecotic acid],Z score,,−0.722
CCOC(=O)C(C)(C)Oc1ccc(Cl)cc1 [Clofibrate],Z Score,[9],−1.738
same,Z score,[10],−1.738
CN1CCc2cc3c(cc2[C@H]1[C@@H]1OC(=O)c2c1ccc1c2OCO1)OCO3 [(+)-Bicuculline],Z Score,,−0.1989
same,Z score,[2],−0.199
same,Activity,[11],no
NCCCP(=O)(O)O [3-Aminopropylphosphonic acid],Z Score,,−2.331
same,Z score,[2],−2.331
same,Activity,[11],yes
CN1C(C)(C)CCCC1(C)C [Pempidine tartrate],Z Score,[9],−1.719
same,Z score,[2],−1.719
same,Activity,[4],no
O=C(O)C=Cc1c[nH]cn1 [4-Imidazoleacrylic acid],Z Score,,−0.2635
same,Z score,[5],−0.264
same,Activity,[6],no
CNC(=O)c1cc2c(cn1)[nH]c1ccccc12 [N-Methyl-beta-carboline-3-carboxamide],Z Score,"168 h, 3 µM",0.6988
same,Z score,"168 h, 3 µM",0.699
same,Activity,[3],no
Cl.O=C(O)C1CCCN(CCC=C(c2ccccc2)c2ccccc2)C1 (stereo not drawn) [SKF 89976A hydrochloride],Z Score,,−0.2328
same,Z score,[2],−0.233
same,Activity,[7],no
CC(C)NCC(O)COc1cccc2ccccc12.Cl (racemic) [(±)-Propranolol hydrochloride],Z score,[2],0.357
same,Activity,[7],no
O=C(O)CCC(=O)N1CCC[C@H]1C(=O)O [N-Succinyl-L-proline],Z Score,[1],0.7246
same,Z score,[2],0.725
same,Activity,[7],no
O=C1NC(c2cccc([N+](=O)[O-])c2)=CCN1c1ccccc1O [Icilin],Z Score,[12],1.643
same,Z score,[10],1.643
same,Activity,[3],no
C[C@@H]1O[C@@H](O[C@H]2C[C@@H](O)[C@]3(CO)[C@H]4[C@H](O)C[C@]5(C)[C@@H]([C@@H]6COC(=O)C6)CC[C@]5(O)[C@@H]4CC[C@]3(O)C2)[C@H](O)[C@H](O)[C@H]1O [Dihydroouabain],Z Score,,0.2034
same,Z score,[10],0.203
same,Activity,[3],no
Metaproterenol hemisulfate,Z Score,[8],−1.022
same,Z score,[2],−1.022
same,Activity,[4],no
"Oc1cccc2c(O)nccc12 [1,5-Isoquinolinediol]",Z Score,[1],0.02674
same,Z score,[2],0.027
same,Activity,[3],no
"Ic1ccccc1CNC1C2CCN(CC2)C1C(c1ccccc1)c1ccccc1.O=C(O)C(=O)O [L-703,606 oxalate]",Z Score,[8],−0.5069
same,Z score,[2],−0.507
same,Activity,[4],no
CCCn1cnc2c1c(=O)n(CCCCC(C)=O)c(=O)n2C [Propentofylline],Z Score,[1],0.1563
same,Z score,[2],0.156
same,Activity,[7],no
c1ccc(C2CN3CCSC3=N2)cc1 (stereo not drawn) [Tetramisole hydrochloride],Z Score,[12],2.649
same,Z score,[5],2.649
same,Activity,[6],no
"Cn1c(=O)[nH]c2ncn(C)c2c1=O [1,7-Dimethylxanthine]",Z Score,"168 h, 3 µM",−0.6623
same,Z score,"168 h, 3 µM",−0.662
same,Activity,[3],no
NNC(N)=O [Semicarbazide hydrochloride],Z Score,,−1.405
same,Z score,[2],−1.405
same,Activity,[7],no
O=c1[nH]c2ccccc2c2ccccc12 [6(5H)-Phenanthridinone],Z Score,"168 h, 3 µM",0.6765
same,Z score,"168 h, 3 µM",0.677
same,Activity,[7],no
CN(C)CCC(c1ccc(Cl)cc1)c1ccccn1.O=C(O)/C=C\C(=O)O (stereo not drawn) [(B1)-Chlorpheniramine maleate],Z Score,,−2.116
NC1(C(=O)O)CCc2cc(C(=O)O)ccc21 (stereo not drawn) [AIDA],Z Score,,0.154
same,Z score,[5],0.154
same,Activity,[6],no
CC(C)NCC(O)c1ccc(NS(C)(=O)=O)cc1.Cl (racemic) [(±)-Sotalol hydrochloride],Z score,[2],−0.813
same,Activity,[7],no
CCCN1CCC[C@@H]2Cc3nc(N)ncc3C[C@H]21.Cl.Cl [Quinelorane dihydroechloride],Z Score,,−1.567
CCN1C(=O)C=CC1=O [N-Ethylmaleimide],Z Score,,−0.02816
same,Z score,[2],−0.028
same,Activity,[3],no
Nc1nc(Nc2ccccc2)nc2c1ncn2[C@@H]1O[C@H](CO)[C@@H](O)[C@H]1O [2-Phenylaminoadenosine],Z Score,"168 h, 3 µM",0.5728
same,Z score,"168 h, 3 µM",0.573
same,Activity,[11],no
Oc1ccc2c3c1O[C@H]1c4[nH]c5ccccc5c4C[C@@]4(O)[C@@H](C2)N(CC2CC2)CC[C@]314 [Naltrindole hydrochloride],Z Score,,−0.314
same,Z score,[2],−0.314
same,Activity,[4],no
O=c1ccn([C@@H]2O[C@H](COP(=O)([O-])OP(=O)([O-])[O-])[C@@H](O)[C@H]2O)c(=O)[nH]1.[Na+].[Na+].[Na+] [Uridine 5′-diphosphate sodium],Z Score,"168 h, 3 µM",0.7074
same,Z score,"168 h, 3 µM",0.707
same,Activity,[6],no
NC(=O)CI [Iodoacetamide],Z Score,,−8.706
same,Z score,[2],−8.706
same,Activity,[11],yes
COc1ccc2c(c1)CC[C@@H]1[C@@H]2CC[C@]2(C)[C@@H](NCCCCCCN3C(=O)C=CC3=O)CC[C@@H]12 [U-73122],Activity,[6],no
CC[C@@]1(O)C(=O)OCc2c1cc1n(c2=O)Cc2cc3ccccc3nc2-1 [(S)-(+)-Camptothecin],Z Score,[9],−9.67
same,Z score,[2],−9.670
same,Activity,[4],yes
CCN(CC)C(=O)c1ccc(O)c(OC)c1 [Vanillic acid diethylamide],Z Score,[8],−0.5948
same,Z score,[10],−0.595
same,Activity,[3],no
N=C(N)NC(CCC(=O)O)C(=O)O (stereo not drawn) [alpha-Guanidinoglutaric acid],Z Score,"168 h, 3 µM",−9.041
same,Z score,"168 h, 3 µM",−9.041
same,Activity,[11],yes
SKF 83565 hydrobromide,Activity,[7],no
CC(=N)NCCC[C@H](N)C(=O)O.Cl [L-N5-(1-Iminoethyl)ornithine hydrochloride],Z Score,,−0.9339
same,Z score,[2],−0.934
same,Activity,[3],no
CN1CCN(CC(=O)N2c3ccccc3C(=O)Nc3cccnc32)CC1.Cl.Cl [Pireuzepine dihydrochloride],Z Score,,−0.545
CCC1(c2ccc(N)cc2)CCC(=O)NC1=O (stereo not drawn) [(B1)-p-Aminoglutethimide],Z Score,,−0.4441
CC(COc1ccccc1)N(CCCl)Cc1ccccc1 (stereo not drawn) [Phenoxybenzamine hydrochloride],Z Score,,−1.512
same,Z score,[10],−1.512
same,Activity,[3],no
N[C@@H](COP(=O)(O)O)C(=O)O [O-Phospho-L-serine],Z Score,[1],0.5472
same,Z score,[2],0.547
same,Activity,[7],no
O=C(O)C1=CCNCC1 [Isoguvacine hydrochloride],Z Score,[9],−2.22
same,Z score,[2],−2.220
same,Activity,[3],no
CC[N+](CC)(CC)CC.[Cl-] [Tetraethylammonium chloride],Activity,,no
same,Z Score,,0.123
same,Z score,,0.123
Oc1cc2c(cc1O)[C@H]1c3ccccc3CN[C@@H]1CC2 (racemic) [Dihydrexidine hydrochloride],Z Score,[8],−0.4153
same,Z score,[10],−0.415
same,Activity,[3],no
COc1ccc(C(=O)N2CCCC2=O)cc1 [Aniracetam],Z Score,[9],−1.355
same,Z score,[5],−1.355
same,Activity,[6],no
CCOC(=O)c1cnc2c(cnn2CC)c1NN=C(C)C [Etazolate hydrochloride],Z Score,"168 h, 3 µM",−0.2465
same,Z score,"168 h, 3 µM",−0.247
same,Activity,[3],no
O=C(Nc1cc(C(=O)Nc2ccc(S(=O)(=O)[O-])cc2S(=O)(=O)[O-])cc(C(=O)Nc2ccc(S(=O)(=O)[O-])cc2S(=O)(=O)[O-])c1)Nc1cc(C(=O)Nc2ccc(S(=O)(=O)[O-])cc2S(=O)(=O)[O-])cc(C(=O)Nc2ccc(S(=O)(=O)[O-])cc2S(=O)(=O)[O-])c1.[Na+].[Na+].[Na+].[Na+].[Na+].[Na+].[Na+].[Na+] [NF449 octasodium salt],Z Score,,1.851
same,Z score,[2],1.851
same,Activity,[4],no
CC(C)NCC(O)c1ccc(O)c(O)c1.Cl (racemic) [(±)-Isopoterenol hydrochloride],Z score,[2],−0.572
same,Activity,[3],no
